Activity calls are given as the source filed them.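 The calls were made as follows: active = parasite count per well reduced by over 3 SD from the mean, with host cell number above 80% of untreated; inactive = the rest.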
Each compound was assayed on L. donovani amastigotes in THP-1 macrophages, DAPI imaging, 72 h (assay: L. donovani intracellular amastigote growth inhibitors, imaging, THP-1 host macrophages, single concentration (AID 977614);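 also: signal is the parasite per host cell ratio from DAPI stained kinetoplasts and nuclei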).
In the case of C[C@H](CO)N1C[C@H](C)[C@@H](CN(C)C(=O)c2ccc(N3CCN(C)CC3)cc2)OCc2cn(nn2)CCCC1=O, the AC50 was > 10 µM (inactive).
With CNC[C@@H]1OCc2cnnn2CCCC(=O)N([C@H](C)CO)C[C@@H]1C the AC50 was > 10 µM (inactive).
With O=C(Nc1ccc(F)cc1)N1C[C@H]2[C@@H](c3ccccc31)[C@H](CO)N2Cc1ccccc1Cl the AC50 was > 10 µM (inactive).
With C[C@H]1CN([C@@H](C)CO)C(=O)CCCn2nncc2CO[C@H]1CN(C)C(=O)c1cc(-c2ccccc2)on1 the AC50 was > 10 µM (inactive).
In the case of CC(=O)N(CC1CCC1)C[C@@H]1N[C@@H](CO)[C@H]1c1ccc(C2=CCCC2)cc1, the AC50 was > 10 µM (inactive).
C[C@@H]1CN([C@@H](C)CO)C(=O)CCCn2cc(nn2)CO[C@H]1CN(C)C(=O)Nc1ccc2c(c1)OCO2 was tested, and the AC50 was > 10 µM (inactive).
CC(=O)N1[C@@H](CO)[C@@H](c2ccccc2)[C@@H]1CN(CC1CCC1)C(=O)CN(C)C was tested, and the AC50 was > 10 µM (inactive).
With C/C=C/c1ccc([C@@H]2[C@@H](CN(CC)C(C)=O)N(Cc3cccnc3)[C@H]2CO)cc1 the AC50 was > 10 µM (inactive).
O=C(Nc1ccc(Cl)cc1)N1C[C@@H]2[C@H](c3ccccc31)[C@@H](CO)N2CC1CCCCC1 was tested, and the AC50 was > 10 µM (inactive).
CCCC#Cc1ccc([C@H]2[C@@H](CO)N(C(C)=O)[C@H]2CN(C)C(=O)C2CC2)cc1 was tested, and the AC50 was > 10 µM (inactive).
For C[C@H]1CN([C@@H](C)CO)C(=O)CCCn2nncc2CO[C@@H]1CN(C)S(=O)(=O)c1ccc(Oc2ccccc2)nc1, the AC50 was > 10 µM (inactive).
CCC(=O)N1[C@H](CO)[C@H]2c3ccccc3N(C(=O)Nc3ccc(Cl)cc3)C[C@H]21 was tested, and the AC50 was > 10 µM (inactive).
With C[C@H](CO)N1C[C@H](C)[C@@H](CN(C)C(=O)Nc2cccc(Oc3ccccn3)c2)OCc2cnnn2CCCC1=O the AC50 was > 10 µM (inactive).
With CCCNC(=O)N1[C@H](CNC(=O)c2cccc(F)c2)[C@H](c2ccccc2)[C@@H]1CO the AC50 was > 10 µM (inactive).
With Cc1noc(C)c1NC(=O)N(C)C[C@H]1OCc2cn(nn2)CCCC(=O)N([C@@H](C)CO)C[C@H]1C the AC50 was > 10 µM (inactive).
C[C@H](CO)N1C[C@H](C)[C@@H](CN(C)Cc2cccc3c2OCCCO3)OCc2cnnn2CCCC1=O was tested, and the AC50 was > 10 µM (inactive).
With COCC(=O)N1[C@H](CO)[C@H](c2ccc(C#CC(C)C)cc2)[C@@H]1CNC(C)=O the AC50 was > 10 µM (inactive).
In the case of O=S(=O)(c1ccccc1)N1C[C@H]2[C@@H](c3ccccc31)[C@@H](CO)N2Cc1ccccn1, the AC50 was > 10 µM (inactive).
In the case of C[C@@H]1CN([C@@H](C)CO)C(=O)CCCn2nncc2CO[C@H]1CN(C)C(=O)c1ccc(N2CCN(C)CC2)cc1, the AC50 was > 10 µM (inactive).
For C[C@H]1CN([C@@H](C)CO)C(=O)CCCn2nncc2CO[C@H]1CN(C)C(=O)Nc1ccc2c(c1)OCCO2, the AC50 was > 10 µM (inactive).
With CN1C[C@H]2[C@@H](c3ccccc31)[C@@H](CO)N2C(=O)c1cccnc1 the AC50 was > 10 µM (inactive).
With COc1ccccc1NC(=O)N1C[C@@H]2[C@H](c3ccccc31)[C@@H](CO)N2CC1CCOCC1 the AC50 was > 10 µM (inactive).
CN(C[C@H]1[C@H](c2ccccc2)[C@@H](CO)N1CC1CC1)C(=O)c1ccc(F)cc1 was tested, and the AC50 was > 10 µM (inactive).
In the case of CCCNC(=O)N1[C@H](CO)[C@H]2c3ccccc3N(C(=O)Nc3cccc(Cl)c3)C[C@H]21, the AC50 was > 10 µM (inactive).
With C[C@H]1CN([C@@H](C)CO)C(=O)CCCn2nncc2CO[C@@H]1CN(C)C(=O)Nc1ccnc(N2CCOCC2)c1 the AC50 was > 10 µM (inactive).
N#Cc1cccc(-c2ccc([C@H]3[C@@H](CO)N[C@@H]3CNC(=O)C3CCC3)cc2)c1 was tested, and the AC50 was > 10 µM (inactive).
With CC(C)NC(=O)N1[C@H](CO)[C@H]2c3ccccc3N(C)C[C@H]21 the AC50 was > 10 µM (inactive).
C[C@H]1CN([C@@H](C)CO)C(=O)CCCn2nncc2CO[C@H]1CN(C)Cc1cccc2c1OCCCO2 was tested, and the AC50 was > 10 µM (inactive).
For COCC(=O)NC[C@H]1[C@@H](c2ccccc2)[C@@H](CO)N1C(=O)c1ccccc1, the AC50 was > 10 µM (inactive).
With O=C(NC[C@@H]1[C@@H](c2ccccc2)[C@@H](CO)N1Cc1ccccn1)C1CCCC1 the AC50 was > 10 µM (inactive).
O=C(c1ccccn1)N1C[C@H]2[C@@H](c3ccccc31)[C@@H](CO)N2C(=O)C1CCCCC1 was tested, and the AC50 was > 10 µM (inactive).
For COc1ccc(CN(C)C[C@@H]2OCc3cnnn3CCCC(=O)N([C@H](C)CO)C[C@H]2C)cc1, the AC50 was > 10 µM (inactive).
With CCN(C[C@@H]1[C@H](c2ccccc2)[C@@H](CO)N1CC1CC1)C(=O)c1ccccn1 the AC50 was > 10 µM (inactive).
With O=C(Nc1ccc(F)cc1)N1C[C@H]2[C@@H](c3ccccc31)[C@H](CO)N2C(=O)c1ccncc1 the AC50 was > 10 µM (inactive).
For O=C(CC(F)(F)F)N1C[C@@H]2[C@H](c3ccccc31)[C@@H](CO)N2CC1CCOCC1, the AC50 was > 10 µM (inactive).
For COc1ccc(NC(=O)N2C[C@H]3[C@@H](c4ccccc42)[C@H](CO)N3Cc2ccccn2)cc1, the AC50 was > 10 µM (inactive).
With C[C@@H]1CN([C@@H](C)CO)C(=O)CCCn2nncc2CO[C@H]1CN(C)C(=O)Nc1ccc2c(c1)OCCO2 the AC50 was > 10 µM (inactive).
For CC(=O)NC[C@@H]1[C@@H](c2ccc(-c3cccnc3)cc2)[C@@H](CO)N1C(=O)CC1CC1, the AC50 was > 10 µM (inactive).
With CC(=O)NC[C@H]1[C@@H](c2ccc(C#CC(C)C)cc2)[C@@H](CO)N1Cc1ccccn1 the AC50 was > 10 µM (inactive).
CN(C[C@@H]1[C@@H](c2ccccc2)[C@H](CO)N1CC1CC1)C(=O)c1ccc(F)cc1 was tested, and the AC50 was > 10 µM (inactive).
In the case of COc1cccc(NC(=O)N2[C@@H](CO)[C@H](c3ccccc3)[C@@H]2CNCC(C)C)c1, the AC50 was > 10 µM (inactive).
With CN1C[C@H]2[C@@H](c3ccccc31)[C@H](CO)N2S(=O)(=O)c1ccccc1 the AC50 was > 10 µM (inactive).
With C[C@@H]1CN([C@H](C)CO)C(=O)CCCn2nncc2CO[C@H]1CN(C)Cc1ccc2c(c1)OCCN2C the AC50 was > 10 µM (inactive).
With OC[C@@H]1[C@H]2c3ccccc3NC[C@H]2N1Cc1ccccc1Cl the AC50 was > 10 µM (inactive).
O=C(c1ccc2c(c1)OCO2)N1C[C@@H]2[C@H](c3ccccc31)[C@H](CO)N2Cc1cccnc1 was tested, and the AC50 was > 10 µM (inactive).
O=C(C1CCCCC1)N1[C@H](CO)[C@H]2c3ccccc3NC[C@H]21 was tested, and the AC50 was > 10 µM (inactive).
With CC(=O)NC[C@H]1[C@@H](c2ccc(C#Cc3ccccc3F)cc2)[C@@H](CO)N1C(C)=O the AC50 was > 10 µM (inactive).
In the case of COc1ccc(C(=O)N2C[C@H]3[C@@H](c4ccccc42)[C@H](CO)N3C(=O)Cc2ccccn2)cc1, the AC50 was > 10 µM (inactive).
In the case of C[C@@H]1CN([C@H](C)CO)C(=O)CCCn2nncc2CO[C@@H]1CN(C)C(=O)c1ccc(N2CCN(C)CC2)cc1, the AC50 was > 10 µM (inactive).
With CCCNC(=O)N(Cc1cccnc1)C[C@H]1N[C@H](CO)[C@@H]1c1ccccc1 the AC50 was > 10 µM (inactive).
In the case of C[C@@H]1CN([C@@H](C)CO)C(=O)CCCn2cc(nn2)CO[C@@H]1CN(C)C(=O)Nc1cccc2ccccc12, the AC50 was > 10 µM (inactive).
Cc1noc(C)c1S(=O)(=O)N(C)C[C@@H]1OCc2cn(nn2)CCCC(=O)N([C@@H](C)CO)C[C@H]1C was tested, and the AC50 was > 10 µM (inactive).
CCS(=O)(=O)N(C)C[C@H]1[C@@H](c2ccccc2)[C@@H](CO)N1C(=O)CN(C)C was tested, and the AC50 was > 10 µM (inactive).
Cc1cccc(S(=O)(=O)N2C[C@@H]3[C@H](c4ccccc42)[C@H](CO)N3C(=O)c2ccccc2)c1 was tested, and the AC50 was > 10 µM (inactive).
C[C@H](CO)N1C[C@H](C)[C@H](CN(C)S(=O)(=O)c2ccc(Oc3ccccc3)nc2)OCc2cnnn2CCCC1=O was tested, and the AC50 was > 10 µM (inactive).
In the case of O=C(c1ccccc1F)N1C[C@@H]2[C@H](c3ccccc31)[C@@H](CO)N2C(=O)Nc1ccccc1, the AC50 was > 10 µM (inactive).
In the case of COc1ccc(NC(=O)N(C)C[C@@H]2OCc3cnnn3CCCC(=O)N([C@@H](C)CO)C[C@@H]2C)c(OC)c1, the AC50 was > 10 µM (inactive).
For C[C@@H]1CN([C@@H](C)CO)C(=O)CCCn2cc(nn2)CO[C@H]1CN(C)C(=O)Nc1cccc(C(F)(F)F)c1, the AC50 was > 10 µM (inactive).
C/C=C/c1ccc([C@H]2[C@@H](CO)N(S(=O)(=O)CC)[C@@H]2CN(C)C(=O)CC)cc1 was tested, and the AC50 was > 10 µM (inactive).
CN1[C@H](CO)[C@H]2c3ccccc3NC[C@H]21 was tested, and the AC50 was > 10 µM (inactive).
For Cc1noc(C)c1S(=O)(=O)N(C)C[C@H]1OCc2cnnn2CCCC(=O)N([C@H](C)CO)C[C@@H]1C, the AC50 was > 10 µM (inactive).
With O=C(Cc1ccccc1)N1C[C@@H]2[C@H](c3ccccc31)[C@H](CO)N2S(=O)(=O)c1ccccc1 the AC50 was > 10 µM (inactive).
In the case of C[C@H](CO)N1C[C@H](C)[C@H](CN(C)C(=O)c2cc(-c3ccccc3)on2)OCc2cnnn2CCCC1=O, the AC50 was > 10 µM (inactive).
With O=C(c1ccc2c(c1)OCO2)N1C[C@H]2[C@@H](c3ccccc31)[C@H](CO)N2Cc1cccnc1 the AC50 was > 10 µM (inactive).
COc1ccccc1NC(=O)N1C[C@H]2[C@@H](c3ccccc31)[C@@H](CO)N2Cc1ccc2c(c1)OCO2 was tested, and the AC50 was > 10 µM (inactive).
COc1ccc(CN(C)C[C@H]2OCc3cnnn3CCCC(=O)N([C@@H](C)CO)C[C@@H]2C)cc1 was tested, and the AC50 was > 10 µM (inactive).
In the case of COc1ccccc1NC(=O)N1C[C@@H]2[C@H](c3ccccc31)[C@H](CO)N2C(=O)C1CCCC1, the AC50 was > 10 µM (inactive).
In the case of C[C@H]1CN([C@@H](C)CO)C(=O)CCCn2nncc2CO[C@H]1CN(C)S(=O)(=O)c1cn(C)cn1, the AC50 was > 10 µM (inactive).
For C[C@H]1CN([C@@H](C)CO)C(=O)CCCn2nncc2CO[C@@H]1CN(C)C(=O)c1ccc(N2CCN(C)CC2)cc1, the AC50 was > 10 µM (inactive).
With C[C@H](CO)N1C[C@H](C)[C@@H](CN(C)S(=O)(=O)c2cn(C)cn2)OCc2cnnn2CCCC1=O the AC50 was > 10 µM (inactive).
In the case of O=S(=O)(NC[C@@H]1[C@H](c2ccccc2)[C@@H](CO)N1CC1CC1)c1ccccc1, the AC50 was > 10 µM (inactive).
For CCC(=O)N1[C@H](CO)[C@H](c2ccc(-c3cccc(OC)c3)cc2)[C@H]1CNC(C)=O, the AC50 was > 10 µM (inactive).
In the case of C[C@@H]1CN([C@H](C)CO)C(=O)CCCn2nncc2CO[C@H]1CN(C)S(=O)(=O)c1ccccc1C#N, the AC50 was > 10 µM (inactive).
With C[C@@H]1CN([C@@H](C)CO)C(=O)CCCn2nncc2CO[C@H]1CN(C)Cc1ccc2c(c1)OCCN2C the AC50 was > 10 µM (inactive).
For O=C(CN1CCOCC1)N1[C@@H]2CNc3ccccc3[C@@H]2[C@@H]1CO, the AC50 was > 10 µM (inactive).

Source: PubChem BioAssay AID977614 (Broad Institute, 2014)
